SMILES strings stand for the structures. Bounds are passed on as bounds.

The compound `CCc1nn2c(-c3cccc(C(F)(F)F)c3)c(C)cnc2c1C#N` registered a melting point of 163 to 164 °C.
In turn, `O=[N+]([O-])c1cc2n(n1)CCOC2` came in with a melting point of 110 to 112 °C.
In turn, `CCC1CC2=CC(=O)CCC2C2CCC3(C)C(O)CCC3C12` (centres undefined) displayed a melting point of 142 to 144 °C.
Next, `Cc1[nH]c(C)c(-c2ccc(Oc3ccc(OC(F)(F)F)cc3)cc2)c(=O)c1Br`: 284 to 286 °C; `COc1ccc(NC(=O)c2ccccc2N)cc1`: 116 to 117 °C; `O=C1Nc2ccccc2N(C(=O)N2CCC(CCCCN3CCCC3)CC2)c2ncccc21`: 193 to 195 °C.
Next, `CCOCc1nc2c(N)nc3ccccc3c2n1CCCc1cc(-c2ccccc2)no1`: 171 to 172 °C.
On to `CC(=O)c1cc(NS(C)(=O)=O)c(Sc2ccc(F)cc2F)cc1[N+](=O)[O-]`, for which the melting point was 169 to 170 °C.
Turning to `Cc1cccc(/C=C/C2=CCN(Cc3c[nH]c4ncccc34)CC2)c1`, the melting point fell in the range of 210 to 212 °C.
To `Cc1nc2c(N)cccn2c1C` belongs 148 to 150 °C; to `O=c1[nH][nH]c(=O)c2c(O)c3ccc(Br)cc3nc12`, 278 °C; to `CCS(=O)(=O)Nc1cc(C2CCCCC2)cc2c1CCCC2c1c[nH]cn1` (centres undefined), 207 to 209 °C.
Next, `O=c1nc(Nc2ccc(C(F)(F)F)cc2)sc2ncccc12`: 280 to 283 °C; `CCOCCOc1ccc(CCNC(=O)/C=C/c2cccs2)cc1S(N)(=O)=O`: 52 °C.
To `COc1ccc(CC(=O)O)cc1C(C)C` belongs 94 to 96 °C.
`O=C1CCOc2ccc(O)cc21` showed a melting point of 133 to 136 °C.
As for `Nc1cc(Cl)ccc1C(=O)NCC1CCN(C(c2ccccc2)c2ccccc2)CC1`, the melting point was 161 to 162 °C.
To `Nc1nc2c(s1)CC(N1CCN(c3ccc(Br)cn3)CC1)CC2` (centres undefined) belongs 246 to 248 °C; to `COc1ccc(C(=O)c2ccc(OCc3nc(-c4cccc(OS(C)(=O)=O)c4)oc3C)cc2)c(OC(C)(C)C(=O)O)c1`, 182 to 183 °C.
Consider `CC(C)(C)NC(=O)[C@@H]1C[C@H](Cl)CN1C(=O)[C@@H](O)[C@H](Cc1ccccc1)NC(=O)[C@H](CC(N)=O)NC(=O)c1cnc2cc([N+](=O)[O-])ccc2n1`, for which the melting point is 153 to 156 °C.
In the case of `CC(C)SN1N=C(c2ccccc2)C(SC(C)C)(SC(C)C)C1=O`, the melting point was in the range of 66 to 67 °C.
Compound `CCc1cc2c(s1)N(C(=O)N(C)C)CCN=C2c1ccccc1` registered a melting point of 237 to 238 °C.
The compound `N#CCc1ccc(C(=O)c2ccc(Cl)cc2)n1Cc1ccccc1` yielded a melting point of 104 to 106 °C.
To `CC(=O)OC1C(OC(=O)c2ccccc2)C=C(C)C(=O)CC1(C)C` (centres undefined) belongs 94 to 95 °C; to `O=C(C(=O)c1ccc(C(F)(F)F)cc1)c1ccncc1`, 70 to 72 °C.
To `N#Cc1ccc(-c2oncc2CCCO)cc1` belongs 82 to 83 °C; to `CCC1(CC)CN(C(C)(C)C)C(=O)C(C)(CC)N1OC(C)(C)C#N` (centres undefined), 78 to 80 °C.
To `COc1ncc(NS(=O)(=O)c2cccc(Cl)c2Cl)c(OC)n1` belongs 124 to 126 °C; to `O=C1NCCn2c1cc1ccccc12`, 228 to 230 °C; to `CCN(c1ccccc1)C1CC(C)N(C(C)=O)c2ccc(-c3ccccc3)cc21` (centres undefined), 121 °C.
`COc1cc(OCC(CO)CO)c(C=CC(=O)c2ccc(S(=O)(=O)Nc3cc(C)on3)cc2)cc1-c1cccs1` yielded a melting point of 165 to 166 °C.
To `Cc1ccc(CCOc2ncnc3c(F)cccc23)cc1` belongs 72 to 74 °C; to `O=C(CC1COC1)N[C@H]1CC[C@H](CCN2CCC(c3cccc4c3CCO4)CC2)CC1`, 197 °C.
`C(=CCON(Cc1ccccc1)Cc1ccccc1)CON(Cc1ccccc1)Cc1ccccc1` gave a melting point of 82 to 85 °C.
With `C=CCOc1ccc2c(c1)OCC1c3ccccc3OC21` (centres undefined), the melting point lay in the range of 72 to 74 °C.
For the compound `CNC(=O)c1ccc(-c2cccc3nc(Nc4cc(OC)c(OC)c(OC)c4)oc23)cc1`, the melting point is 258 to 259 °C.
Regarding `CSC1C(=O)Nc2ccc(C3=NNC(=O)SC3)cc21` (centres undefined), the melting point was 201 to 204 °C.
The compound `Cc1cn(C2OC(CO)C(O)C2F)c(=O)[nH]c1=O` (centres undefined) returned a melting point of 185 to 186 °C.
`COc1cccc([C@H]2O[C@H](CC(=O)Nc3cc(C(=O)O)ccc3F)C(=O)N(CC(C)(C)COC(C)=O)c3ccc(Cl)cc32)c1OC` came in with a melting point of 146 to 149 °C.
Next, `Cc1c(NC(=O)c2ccc(OC[C@@H]3CCCO3)cc2)ccc2c1cc(CNC1CCCC1)n2C`: 189 °C.
Next, `O=C(O)CCCc1cc2nc(Cl)ccc2n1S(=O)(=O)c1ccc2ncsc2c1`: 178 °C.
The compound `C=CC(O)c1c(C(C)C)nc(C(C)C)c(CCCCC)c1-c1ccc(F)cc1` (centres undefined) registered a melting point of 83 to 85 °C.
For `COC(=O)N1CCCC2CN(c3ccc(N4CC(CNC(C)=O)OC4=O)cc3F)CC21` (centres undefined), the melting point is 83 to 85 °C.
Take `CC(C)(C)c1cc(C(=O)O)c(Cl)c(C(=O)O)c1`: the melting point worked out at 250 °C.
Next, `CCNC(=O)CCC(=O)c1cnc2c(OC)cccc2c1Nc1ccccc1C`: 88.5 to 90 °C; `CS(=O)(=O)N(Cc1ccccc1)c1ccc(C2CO2)cc1` (centres undefined): 89 to 92 °C; `Cc1c(Cc2nc3n(-c4c(Cl)cc(Cl)cc4Cl)[nH]c(C(C)C)c-3c(=O)n2)cccc1NC(=O)CCl`: 237 to 238 °C.
Next, `Cc1cccc(C)c1CNc1cc(Br)cc2c1nc(C)n2C`: 185 °C; `COc1ccc(CNc2cc(Cl)c(N=CN(C)C)c(Cl)c2)cc1F`: 138 to 140 °C; `COc1cc([N+](=O)[O-])c([N+](=O)[O-])cc1O`: 172 °C.
To `OCCNc1cc(N2CCCC2)nc(N2CCCC2)n1` belongs 150 to 152 °C; to `O=C(CCl)c1cccn1C(c1ccccc1)c1ccccc1F` (centres undefined), 86 to 91 °C; to `O=C(Nc1ccc(N2CCS(=O)(=O)CC2)c(C(F)(F)F)c1)N1CCc2cc(Oc3cc(Cl)ncn3)ccc21`, 248 to 255 °C.
The compound `CCSC(=O)OCOC(=O)COc1nc(Cl)c(Cl)cc1Cl` showed a melting point of 70 to 71 °C.
To `Nc1ncc(-c2ccccc2COC2CCCCC2)s1` belongs 102 °C.
Regarding `C(#Cc1ccsc1)c1cccnc1`, the melting point came out at 62 °C.
Consider `Cc1cccc2c1c(N1CCOCC1)nc1c(-c3nc(C4CC4)no3)ncn12`, for which the melting point lay within 262 to 266 °C.
To `CC(=O)c1c(Cl)cc(Cl)cc1OCC(=O)O` belongs 110 °C.
With `Cc1ccc(-c2ccc(S(C)(=O)=O)c(F)c2)n1-c1ccc(-c2ccoc2)cc1`, the melting point is 147 to 150 °C.
On to `CC(=O)OCCn1c2c(c3ccccc3c1=O)C(=O)c1ccccc1-2`, for which the melting point was in the range of 221 to 224 °C.
On to `Cc1cnc(C(=O)c2[nH]c3cc(Cl)ccc3c2CC(=O)O)cc1C`, for which the melting point lay within 226 to 228 °C.
`O=C1c2c(Sc3ccccc3)ccc(Sc3ccc(O)cc3)c2C(=O)c2c(Sc3ccccc3)ccc(Sc3ccc(O)cc3)c21` came in with a melting point of over 340 °C.
For `Oc1ccc(SSc2ccc(O)cc2)cc1`, the melting point fell in the range of 144 to 146 °C.
`O=C(O)c1ccc(SC(Cn2ccnc2)c2ccc(C(F)(F)F)cc2)cc1` (centres undefined) came in with a melting point of 92 to 95 °C.
To `O=CNc1ccccc1CCO` belongs 49 to 54 °C.
To `COc1ccc(CC(=O)O)cc1C(C)(C)C` belongs 93 to 94 °C; to `COc1cc2c(cc1-c1nocc1-c1ccccc1C#N)C(C)(C)CCC2(C)C`, 202 to 203 °C; to `COc1ccc(C(c2ccc(OC)cc2)C2CN(C)CCC2=O)cc1` (centres undefined), 104 to 106 °C.
For `CN(Cc1ccccc1)c1nc(N2CCC(N(C)C)CC2)nc2c(N3CCOCC3)ncnc12`, the melting point was 122 °C.
Take `O=C(O)C(Cc1ccccc1)Oc1ccc2cc(-c3cnc(Cc4ccccc4)o3)ccc2c1` (centres undefined): the melting point is 78 to 82 °C.
To `C=CCOC(=O)[C@@H]1CC[C@@H]2CN1C(=O)N2OCc1ccccc1` belongs 60 to 62 °C.
`CC(C)(C)n1nnc(N)n1` had a melting point of 114 to 115 °C.
`CCOC(=O)OC1=C(c2cc(C)ccc2C)C(=O)N(OCOC)C12CCN(OC)CC2` displayed a melting point of 109 to 111 °C.
Next, `Cc1ccc(Cl)c(C2CCc3c(C)cnnc3C2)c1` (centres undefined): 65 to 70 °C.
To `CCOC(=O)c1cc(-c2ccc(Cl)cc2)n(O)c1C(=O)OCC` belongs 82 to 84 °C; to `CC12CCC(C1)C1(C)Oc3ccc(C(O)COc4ccc(C(=O)O)cc4)cc3C21C` (centres undefined), 123 °C; to `NNc1nc2cc(Cl)ccc2nc1Cl`, under 250 °C.
To `O=[N+]([O-])c1ccc(C#CCCN2CC=C(c3ccccc3)CC2)nc1` belongs 133 to 134 °C; to `CC1(C)CS(=O)(=O)CC(C)(C)N1CC#N`, 188 °C.
`COc1cc(CCC(=O)c2c(O)cc(O)c(CCC(C)C)c2O)cc(OC)c1O` came in with a melting point of 166 to 167 °C.
To `Cc1ccc(S(=O)(=O)N=CN(C)C)cc1Br` belongs 162 °C.
The compound `CC1=C(c2ccc(C(=O)N3Cc4cccn4Cc4ccccc43)cc2)CCCC1=O` displayed a melting point of 95 to 97 °C.
Next, `CC1=NC(Cc2ncc(Br)cn2)C(Br)=CN1` (centres undefined): 176 °C; `COc1ccc(-c2nc(-c3ccc[nH]3)sc2-c2ccc(OC)cc2)cc1`: 132 to 134 °C.
As to `Cc1cc(Cl)ccc1NC(=S)NC(=O)c1ccccc1`, the melting point came to 148 °C.
Next, `Cc1[nH]c(=O)c(-c2csc(-c3ccnc(NCC4CC4)c3)n2)cc1C(=O)NCC1CC1`: over 260 °C; `O=C(CCCCN1CCCC1)NNC(=O)N1Cc2ccccc2Oc2ccc(Cl)cc21`: 133 to 135 °C.
Regarding `CCOc1ccc(CC(C)=O)cc1S(N)(=O)=O`, the melting point was 158 to 159 °C.
Compound `Cc1ccc(O)c(-c2ccc(Br)cc2)n1` registered a melting point of 196 to 199 °C.

For the origin of these results see a melting point compilation (Tetko et al.; mined from patent text by program, amines drawn as free bases though some values may be those of a salt).
